# Test results reported in paper PMC5485613, “A novel TRPM8 agonist relieves dry eye discomfort” (BMC Ophthalmology, 2017).
# “And” between values parts separate entries of the source, which are not always exact repeats. Equal values may be shown once.
# What was measured:
# [1] = tested on: rats; assay: Shaking activity (wet dog shakes) after intravenous, perioral and topical administration; type: in vivo, rat
# Procedure: Male rats weighing 220–260 g were anesthetized with sodium pentobarbital, 55 mg/kg intraperitoneal, and after the loss of the righting reflex, animals were placed on a table and body temperature was recorded. The femoral vein was cannulated with polyethylene-20 tubing connected to a 1 mL syringe. For the intravenous and perioral routes, 0.1 mL of solution was given per 100 g body weight at a dose of 2 mg/kg or 20 mg/kg, respectively. For topical administration, the abdominal skin was shaved and 20 μL of the pure Dapa was applied with a micropipette on a ~ 1 cm diameter circle of skin, enclosed with a ring of cream (Baby cream “NevskayakosmetikaDetskyi” NevskayaKosmetika Inc., Saint-Petersburg 192,029). Animals were observed and shaking frequency counted for 15, 40 min and 1 h after intravenous, perioral, and topical applications, respectively. There were n = 3 to 6 rats per test substance. For the intravenous route, two trials were conducted in the same animal with a 10 to 15 min interval between doses. The shaking frequency shown in the graphs is for the second trial. Shaking behavior are rapid alternating contractions of the supination and pronation muscles about the spinal axis, and can be readily observed in the readily observed in the unanesthetized or anesthetized state and counted (Additional file 2: Movie S1). The pattern of response after intravenous, perioral, and topical delivery provides information on the ability of the molecule to cross membrane barriers. Experiments on rats were ended by euthanasia with intraperitoneal injection of sodium pentobarbital 150 mg/kg.
# Supplementary file 12886_2017_495_MOESM2_ESM.mp4: Additional file 2: Movie S1. Shaking response to a 1-diisopropylphosphorylnonane. Video recording 20 to 40 min period after oral dosing with C3 at 50 mg/kg. C3 was dissolved in 5% ethanol-95% R-1,2-propanediol. The total observation period was 120 min. […] (MP4 3699 kb)
# [2] = tested on: patients with dry eye disease; assay: Single application to eyelids of patients with dry eye disease (Expt 1); type: in vivo, human
# Procedure: In the first experiment in which only a single application was tested, 60 subjects were randomly assigned using online software (http://www.graphpad.com/quickcalcs/index.cfm). One group received the vehicle solution (distilled water) (N = 30), and the second group received the TRPM8 agonist C3 dissolved in 2 mg/mL in distilled water (N = 30). Test solutions were kept at room temperature and topically applied to the eyelid skin and margins using an absorbent cotton gauze square (0.4 g rectangle (50 mm × 60 mm), CS-being, Daisan Cotton, Japan). A loading volume of 0.5 mL of solution was used to wet the cotton and the square wiped twice across the closed eyelids (Fig. 5c). The off-loaded volume from the gauze was estimated by weighing the square before and after wiping and found to be 6.5 mg or 6.5 μL. For the C3 solution this is equivalent to 13 μg of C3 for both eyes. This method of delivery targets the edges of the closed eyelids and utilizes the eyelashes as a wick to distribute the solution to the mucocutaneous junctions, conjunctiva, and precorneal film. The lid wiper mechanism of the blink further evenly distributes the solution on to the ocular surface. By using this wiping method, bolus delivery of an eye drop to the corneal surface is avoided.
# Subsequently, cooling sensation (every 5 min), TBUT (every 10 min), basal tear secretion (every 20 min), and keratoepitheliopathy (KEP) score (every 30 min) were evaluated for 1 h. In addition, a questionnaire asking the severity of dry eye was used to evaluate the changes in dry eye symptom before and 1 h after application of topical agents. To avoid the effect of topical anesthesia on patient’s sensation, changes in cooling sensation and symptoms of dry eye were evaluated in the right eye, and the remaining examinations including the basal tear secretion measured by Schirmer score with application of topical 0.5% proparacine were performed on the left eye. All examinations were performed by a single masked investigator (K.C.Y) who was not informed of the results of the randomization. All the experiments and the answering the questionnaire were performed in a separate room so that the subjects would not compare the difference of the medications. The room temperature of the study was maintained at 25 °C. Cooling sensation was recorded by subjects using VAS symptom intensity scores on a scale of 0 (no symptom) to 10 (maximum intensity). The severity of dry eye symptoms was graded on a numerical score of 0 to 4 as follows; 0, no symptoms; 1, mild symptoms; 2, moderate symptoms; 3, severe symptoms; and 4, very severe symptoms. TBUT and basal tear secretion (Schirmer score with application of topical 0.5% proparacaine) were measured as previously described. To assess the corneal epithelial damage, the cornea was stained with 1% Fluorescein dye and the severity of KEP was scored by multiplying the area score (0–3) by density score (0–3) of staining.
# [3] = tested on: TRPM8-sensory neurons; assay: Calcium imaging of primary sensory neurons from Trpm8 EGFP mice; type: cell-based, mouse; details: C3 10 μM
# Procedure: Calcium imaging was used to test the C3 selectivity on TRPM8-sensory neurons. Trpm8 ^+/EGFPmice were gifted by Dr. Yu-Qing Cao, Pain Center of Washington University in Saint Louis, School of Medicine, Missouri. Trigeminal ganglions and dorsal root ganglions from 4 to 5 weeks old mice were collected after CO2 euthanasia and digested for 30–40 min before plated on cover slips (8 mm), which were coated with poly-D-lysine for 40 min before use. Cover slips were gently washed with culture media to remove myelin after incubating for 35–40 min. Calcium imaging was done after incubation overnight at 37 °C, 5% CO2. Neurons were loaded with Fura-2 AM™ (Molecular Probes) for 30 min at room temperature. After washing and recovery, neurons were imaged at 340 and 380 nm excitation to detect free calcium influx. An increase of 50% of the 340/380 ratio was considered as the response threshold which were measured under blinded conditions for genotypes. Compounds were applied to the bath and calcium response was acquired by an inverted Nikon fluorescence microscope with a CoolSnap HQ2 CCD camera (Photometrics, Tucson, AZ). Data was quantified offline with the Nikon-NIS program.
compound,measurement,setting,value
"CCCCCCCCCP(=O)(C(C)C)C(C)C [C3, 1-diisopropylphosphorylnonane]",Shaking [15 min],"[1]; intravenous 2 mg/kg, anesthetized rats",active
same,body shakes after oral dosing,"[1]; oral 20 mg/kg, anesthetized and unanesthetized state",no body shakes
same,total number of shaking in the most active rat,"[1]; oral 50 mg/kg in 5% ethanol-95% R-1,2-propanediol, observation 120 min",56 shakes
same,Shaking [40 min],"[1]; perioral 20 mg/kg, pentobarbital-anesthetized rats",not active
same,duration of increase in tear secretion,[2]; 2 mg/mL single application,60 min
same,ocular pain or irritation,[2]; 2 mg/mL single application,None of patients reported
same,basal tear secretion,"[2]; 2 mg/mL single application, 20, 40 and 60 min",significantly increased
same,TBUT,"[2]; 2 mg/mL single application, 30 min and 40 min, above baseline",significantly elevated
same,dry eye symptom score,"[2]; 2 mg/mL single application, 1 h, compared to baseline",improved significantly
same,duration of ocular cooling,"[2]; 2 mg/mL single application, n = 30",46 min and 46 ± 2 min
same,KEP score,"[2]; 2 mg/mL single application, versus vehicle",No differences
same,calcium entry in TRPM8 EGFP/+ sensory neurons,[3],activates calcium entry
